Results: article PMC10977697 (PLOS ONE, 2024)
Where no end group is shown, it is not given here.

System: Lgr5ECD-Fc
Assay type: binding, human
Conditions: ratio of signal for target protein over BSA background

Molecule	S/N
GPTQSAFGPCGGIGYSGPTVCASGTTCQVLSPDVSQCLPGAS (also: bicyclic or more (positions not given here)) [Lgr5ECD-Fc CBD 6]	36.0
GPTQSAFGPCGGIGYSGPTVCASGTTCQVLSPDVSRCLPGAS (also: bicyclic or more (positions not given here)) [Lgr5ECD-Fc CBD 8]	30.3
GPTQSAYGQCGGIGYSGPTVCASGTTCQVLWPQVSWCLPGAS (also: bicyclic or more (positions not given here)) [Lgr5ECD-Fc CBD 13]	14.2
GPTQSHYGLCGGIGYSGPTVCASGTTCQVLSPEFSQCLPGAS (also: bicyclic or more (positions not given here)) [Lgr5ECD-Fc CBD 10]	23.6
GPTQSLFGMCGGIGYSGPTVCASGTTCQVLDPTTSQCLPGAS (also: bicyclic or more (positions not given here)) [Lgr5ECD-Fc CBD 2]	42.7
GPTQSOYGMCGGIGYSGPTVCASGTTCQVLDPTTSQCLPGAS (bicyclic or more) [Lgr5ECD-Fc CBD 18]	34.5
GPTQSPGGICGGIGYSGPTVCASGTTCQVLSPEYSQCLPGAS (also: bicyclic or more (positions not given here)) [Lgr5ECD-Fc CBD 7]	34.9
GPTQSQFGMCGGIGYSGPTVCASGTTCQVLDPTTSQCLPGAS (also: bicyclic or more (positions not given here)) [Lgr5ECD-Fc CBD 4]	40.8
GPTQSQYGICGGIGYSGPTVCASGTTCQVLSPDWSQCLPGAS (also: bicyclic or more (positions not given here)) [Lgr5ECD-Fc CBD 9]	23.7
GPTQSQYGICGGIGYSGPTVCASGTTCQVLSPEFSQCLPGAS (also: bicyclic or more (positions not given here)) [Lgr5ECD-Fc CBD 14]	12.1
GPTQSQYGLCGGIGYSGPTVCASGTTCQVLDPTTSQCLPGAS (also: bicyclic or more (positions not given here)) [Lgr5ECD-Fc CBD 15]	8.9
GPTQSTWGQCGGIGYSGPTVCASGTTCQVLWPTLSWCLPGAS (also: bicyclic or more (positions not given here)) [Lgr5ECD-Fc CBD 5]	38.3
GPTQSTYGQCGGIGYSGPTVCASGTTCQVLWPALSWCLPGAS (also: bicyclic or more (positions not given here)) [Lgr5ECD-Fc CBD 1]	43.0
GPTQSVYGICGGIGYSGPTVCASGTTCQVLDPTTSQCLPGAS (also: bicyclic or more (positions not given here)) [Lgr5ECD-Fc CBD 12]	18.9
GPTQSVYGICGGIGYSGPTVCASGTTCQVLSPEFSQCLPGAS (also: bicyclic or more (positions not given here)) [Lgr5ECD-Fc CBD 11]	23.1
GPTQSVYGMCGGIGYSGPTVCASGTTCQVLDPTTSQCLPGAS (also: bicyclic or more (positions not given here)) [Lgr5ECD-Fc CBD 3]	41.0

System: HtrA1
Assay type: binding, human
Conditions: not given

Molecule	S/N
CC[C@H](C)[C@@H]1NC(=O)[C@H](CO)NC(=O)[C@@H]2CSSC[C@@H]3NC(=O)[C@H](CO)NC(=O)CNC(=O)[C@H]([C@@H](C)O)NC(=O)[C@H](CSSC[C@H](N)C(=O)N[C@@H](CCCCN)C(=O)NCC(=O)N[C@@H](CCCCN)C(=O)NCC(=O)N[C@@H](C)C(=O)N[C@@H](CCCCN)C(=O)N2)NC(=O)[C@H](CSSC[C@@H](C(=O)O)NC(=O)[C@H](CCCCN)NC(=O)CNC(=O)[C@H](CO)NC(=O)[C@H](CCCNC(=N)N)NC3=O)NC(=O)[C@H](C(C)C)NC(=O)[C@H](CCCCN)NC(=O)[C@H](Cc2c[nH]c3ccccc23)NC(=O)[C@@H]2CCCN2C(=O)[C@H](Cc2ccc(O)cc2)NC(=O)[C@H](C(C)C)NC(=O)[C@H](CO)NC(=O)[C@H](Cc2c[nH]c3ccccc23)NC(=O)[C@H](CCC(N)=O)NC1=O [HtrA1_CnTx83]	16.1

Same assay, conditions: ratio of signal for target protein over BSA background

Molecule	S/N
AFDCLGQCGRCDFHKLQCVAWLMYSFVRPYCNSSCTR (also: bicyclic or more (positions not given here)) [HtrA1 AVR9 53]	7.3
AFDCLGQCGRCDFHKLQCVFWHWYYCNSSCTR (also: bicyclic or more (positions not given here)) [HtrA1 AVR9 84]	8.5
AFDCLGQCGRCDFHKLQCVIQQMRWKAQPDGYCNSSCTR (also: bicyclic or more (positions not given here)) [HtrA1 AVR9 37]	9.7
AFDCLGQCGRCDFHKLQCVKQVMATLWSMYCNSSCTR (also: bicyclic or more (positions not given here)) [HtrA1 AVR9 39]	9.9
AFDCLGQCGRCDFHKLQCVLWHQWVKWYVYCNSSCTR (also: bicyclic or more (positions not given here)) [HtrA1 AVR9 68]	8.9
AFDCLGQCGRCDFHKLQCVLWTVANMQHYYCNSSCTR (also: bicyclic or more (positions not given here)) [HtrA1 AVR9 85]	6.5
AFDCLGQCGRCDFHKLQCVMMRLLARWVFKFYCNSSCTR (also: bicyclic or more (positions not given here)) [HtrA1 AVR9 52]	13.2
AFDCLGQCGRCDFHKLQCVQYAYRWLMRQYCNSSCTR (also: bicyclic or more (positions not given here)) [HtrA1 AVR9 55]	4.1
AFDCLGQCGRCDFHKLQCVRWSIDAIIIWYCNSSCTR (also: bicyclic or more (positions not given here)) [HtrA1 AVR9 42]	12.1
AFDCLGQCGRCDFHKLQCVRYLIKYSIMWMTYCNSSCTR (also: bicyclic or more (positions not given here)) [HtrA1 AVR9 26]	15.1
AFDCLGQCGRCDFHKLQCVVFQIIYQAVNYCNSSCTR (also: bicyclic or more (positions not given here)) [HtrA1 AVR9 88]	9.5
AFDCLGQCGRCDFHKLQCVVTIIRKMMLWYCNSSCTR (also: bicyclic or more (positions not given here)) [HtrA1 AVR9 31]	19.0
AFDCLGQCGRCDFHKLQCVWRWMHQYCNSSCTR (also: bicyclic or more (positions not given here)) [HtrA1 AVR9 2]	22.7
AFDCLGQCGRCDFHKLQCVWRYIQKMRYCNSSCTR (also: bicyclic or more (positions not given here)) [HtrA1 AVR9 89]	14.9
AFDCLGQCGRCDFHKLQCVWSIYVKFWYCNSSCTR (also: bicyclic or more (positions not given here)) [HtrA1 AVR9 4]	21.2
AFDCLGQCGRCDFHKLQCVYRQFWMVKFGWQPGYCNSSCTR (also: bicyclic or more (positions not given here)) [HtrA1 AVR9 10]	15.2
GCHSVHSMCKQDSDCLAGCVCYWFYGCG (also: bicyclic or more (positions not given here)) [HtrA1 EET I-II 1]	11.8

Molecule	S/N
GCPRILMRCKQDSDCLAGCVCWMPVLCV (also: bicyclic or more (positions not given here)) [HtrA1 EET I-II 19]	3.1
GCREMLGNWVCKRFRLSSWLCLWSNGFCGT [HtrA1 EET I-II 41]	11.8
GCWWMNVRTRQGCKQDSDCLAGCVCGPNGFCG (also: bicyclic or more (positions not given here)) [HtrA1 EET I-II 25]	2.8
GPTQSHYGQCGGRGYFGTMYCASGTTCQFKWRRDSQCLPGAS (also: bicyclic or more (positions not given here)) [HtrA1 CBD 74]	22.8
GPTQSHYGQCGGSGYWGLFMCASGTTCQSVTMTVSQCLPGAS (also: bicyclic or more (positions not given here)) [HtrA1 CBD 54]	5.6
GPTQSHYGQCGGWGYTGWYQCASGTTCQGPRSRLSQCLPGAS (also: bicyclic or more (positions not given here)) [HtrA1_CBDwt46]	25.9
WIPCISAALGCSCKNKVCYALNNMVQFLYIHHCGESCV (also: bicyclic or more (positions not given here)) [HtrA1 CirculinA 66]	12.7
WIPCISAALGCSCKNKVCYFFHKLMYYMCGESCV (also: bicyclic or more (positions not given here)) [HtrA1 CirculinA 24]	17.7
WIPCISAALGCSCKNKVCYFMTQHIRWFVKCGESCV (also: bicyclic or more (positions not given here)) [HtrA1 CirculinA 91]	26.8
WIPCISAALGCSCKNKVCYHFQHWVQMNKCGESCV (also: bicyclic or more (positions not given here)) [HtrA1 CirculinA 82]	10.4
WIPCISAALGCSCKNKVCYILNRSCGESCV (also: bicyclic or more (positions not given here)) [HtrA1 CirculinA 40]	8.0
WIPCISAALGCSCKNKVCYIVILTTPCGESCV (also: bicyclic or more (positions not given here)) [HtrA1 CirculinA 73]	8.4
WIPCISAALGCSCKNKVCYMYYYIMGQNLMNTCGESCV (also: bicyclic or more (positions not given here)) [HtrA1 CirculinA 48]	24.1
WIPCISAALGCSCKNKVCYQVWQHIFKCGESCV (also: bicyclic or more (positions not given here)) [HtrA1 CirculinA 67]	15.4
WIPCISAALGCSCKNKVCYVATMVVHWVCGESCV (also: bicyclic or more (positions not given here)) [HtrA1 CirculinA 34]	16.8
WIPCISAALGCSCKNKVCYYAGKIYSWQAQLLCGESCV (also: bicyclic or more (positions not given here)) [HtrA1 CirculinA 93]	8.4
WIPCISAALGCSCKNKVCYYMWHVHSLICGESCV (also: bicyclic or more (positions not given here)) [HtrA1 CirculinA 36]	9.6
